Assay [1] relates to CCRF-CEM. Description: Cytotoxicity against human CCRF-CEM cells after 72 hrs by XTT assay. Type of assay: functional, cell-based. In general terms: Tetrazolium dyes change colour on reduction, which living cells bring about.
For assay [2], the system named is CCRF-CEM. Description: Cytotoxicity against vinblastine-resistant human CCRF-CEM cells after 72 hrs by XTT assay. Type of assay: functional, cell-based.
The test system of assay [3] is CCRF-CEM. Description: Cytotoxicity against taxol-resistant human CCRF-CEM cells after 72 hrs by XTT assay. Format: functional, cell-based.
The test system of assay [4] is CCRF-CEM. Description: Selectivity ratio of IC50 for taxol-resistant human CCRF-CEM cells to IC50 for human CCRF-CEM cells. Format: functional.
A further assay deals with HCT-116. In words: Cytotoxicity against human HCT116 cells after 72 hrs by SRB assay. The settings on record: HCT-116, 72 h. Type of assay: functional, cell-based.
In assay [5] the test system is CCRF-CEM. Description: Selectivity ratio of IC50 for vinblastine-resistant human CCRF-CEM cells to IC50 for human CCRF-CEM cells. Format: functional.
The next assay has as its system MX1. In words: Cytotoxicity against human MX1 cells after 72 hrs by SRB assay. To be noted: MX1, 72 h. Type of assay: functional, cell-based.
Assay [6] in a line: Cytotoxicity against human CL1-5 cells after 72 hrs by alamar blue assay. Format: functional, cell-based. The settings on record: CL1-5, 72 h. In general terms: The colour change of resazurin is a common sign of viable cells or microbes.
The next assay has as its system MCF7. Description: Cytotoxicity against human MCF7 cells after 72 hrs by alamar blue assay. Format: functional, cell-based. The settings on record: MCF7, 72 h.
Assay [7] can be described thus: Cytotoxicity against human H1299 cells after 72 hrs by alamar blue assay. Type of assay: functional, cell-based. To be noted: NCI-H1299, 72 h.
Assay [8] can be described thus: Cytotoxicity against human CL1-0 cells after 72 hrs by alamar blue assay. The settings on record: CL1-0, 72 h. Type of assay: functional, cell-based.
For another assay, the system named is PC-3. In words: Cytotoxicity against human PC3 cells after 72 hrs by alamar blue assay. Type of assay: functional, cell-based. The settings on record: PC-3, 72 h.

This note sets out measurements from ChEMBL document CHEMBL1157637, “Potent DNA-directed alkylating agents: Synthesis and biological activity of phenyl N-mustard-quinoline conjugates having a urea or hydrazinecarboxamide linker” (Bioorg Med Chem, 2010).

One may read the IC50 as the midpoint of a concentration-inhibition curve. For `O=C(Nc1ccc(N(CCCl)CCCl)cc1)Nc1cc(-c2ccccc2F)nc2ccc(N3CCCC3)cc12`, the half-maximal inhibitory concentration (IC50) in the assay with CCRF-CEM [1] was 7650 nM; with CCRF-CEM [2], 12400 nM; in the assay on CCRF-CEM [3] it was 39900 nM; in the assay with HCT-116, 44200 nM; in the assay on MX1, 115000 nM. For the same molecule, the figures for the “Ratio IC50” value in the assay on CCRF-CEM [4] and in the assay with CCRF-CEM [5] were 5.22 and 1.62, respectively.

In the case of `COc1cccc(-c2cc(NC(=O)NNc3ccc(N(CCCl)CCCl)cc3)c3cc(N4CCCC4)ccc3n2)c1`, the IC50 worked out at 5860 nM in [6]; 354 nM with CCRF-CEM [1]; 5460 nM with MCF7; 945 nM in assay [7]; 833 nM in the assay with CCRF-CEM [2]; 568 nM in the assay with CCRF-CEM [3]. Also, the IC50 in the assay with HCT-116 was 643 nM; in the assay on MX1, 1320 nM; in assay [8] it was 2920 nM; in the assay with PC-3, 3340 nM. Further, the “Ratio IC50” value in the assay with CCRF-CEM [4] stood at 1.6; in the assay on CCRF-CEM [5], 2.35.

`Cc1cc(NC(=O)Nc2ccc(N(CCCl)CCCl)cc2)c2cc(N(C)C)ccc2n1`: the IC50 in assay [6] was 2520 nM; in the assay with CCRF-CEM [1], 107 nM; in the assay on MCF7 it was 2130 nM; in assay [7], 714 nM; in the assay with CCRF-CEM [2], 242 nM; in the assay with CCRF-CEM [3] it was 308 nM. Further, the IC50 amounted to 300 nM with HCT-116, 184 nM with MX1, 1730 nM in [8] and 2000 nM with PC-3. The results for the “Ratio IC50” value in the assay with CCRF-CEM [4] and with CCRF-CEM [5] were 2.9 and 2.3, respectively.

As to `Cc1cc(NC(=O)Nc2ccc(N(CCCl)CCCl)cc2)c2cc(N3CCCC3)ccc2n1`, the IC50 stood at 9020 nM with CCRF-CEM [1]; 12900 nM with CCRF-CEM [2]; 16900 nM in the assay with CCRF-CEM [3]; 13400 nM in the assay on HCT-116; 16600 nM with MX1. The figures for the “Ratio IC50” value with CCRF-CEM [4] and with CCRF-CEM [5] were 1.87 and 1.43, respectively.

Regarding `COc1ccc2nc(C)cc(NC(=O)Nc3ccc(N(CCCl)CCCl)cc3)c2c1`, the IC50 in [6] stood at 5330 nM; with CCRF-CEM [1], 309 nM; in the assay on MCF7, 5190 nM; in assay [7] it was 1310 nM; in the assay with CCRF-CEM [2], 458 nM; in the assay with CCRF-CEM [3], 313 nM. The IC50 stood at 830 nM with HCT-116, 645 nM with MX1, 5580 nM in assay [8] and 3150 nM in the assay on PC-3. The figures for the “Ratio IC50” value in the assay on CCRF-CEM [4] and with CCRF-CEM [5] were 1 and 1.5, respectively.

As for `O=C(NNc1ccc(N(CCCl)CCCl)cc1)Nc1cc(-c2ccccc2F)nc2cc3c(cc12)OCO3`, the IC50 in assay [6] came to 2650 nM; in the assay with CCRF-CEM [1], 1420 nM; in the assay with MCF7, 1820 nM; in assay [7] it was 491 nM; in the assay on CCRF-CEM [2] it was 3170 nM; with CCRF-CEM [3] it was 2980 nM. Also, the IC50 in the assay on HCT-116 was 6480 nM; in the assay with MX1, 42600 nM; in [8], 3470 nM; in the assay on PC-3, 4770 nM. Moreover, the “Ratio IC50” value came out at 2.09 in the assay with CCRF-CEM [4] and 2.23 in the assay with CCRF-CEM [5].

For `CC[C@]1(O)C[C@@H]2CN(CCc3c([nH]c4ccccc34)[C@@](C(=O)OC)(c3cc4c(cc3OC)N(C)[C@H]3[C@@](O)(C(=O)OC)[C@H](OC(C)=O)[C@]5(CC)C=CCN6CC[C@]43[C@@H]65)C2)C1` [VINBLASTINE], the entries for the “Ratio IC50” value in the assay with CCRF-CEM [4] and in the assay on CCRF-CEM [5] were 106.2 and 679.5, respectively.

In the case of `Cc1cc(NC(=O)Nc2ccc(N(CCCl)CCCl)cc2)c2cc3c(cc2n1)OCO3`, the IC50 worked out at 7270 nM in [6]; 279 nM in the assay on CCRF-CEM [1]; 4910 nM in the assay on MCF7; 5440 nM in assay [7]; 652 nM with CCRF-CEM [2]; 605 nM in the assay on CCRF-CEM [3]. In addition, the IC50 in the assay on HCT-116 amounted to 402 nM; in the assay on MX1, 584 nM; in [8], 6230 nM; in the assay on PC-3, 5960 nM. Further, the “Ratio IC50” value in the assay with CCRF-CEM [4] is recorded as 2.2; with CCRF-CEM [5] it was 2.3.

On to `O=C(Nc1ccc(N(CCCl)CCCl)cc1)Nc1cc(-c2ccccc2)nc2cc3c(cc12)OCO3`, for which the IC50 with CCRF-CEM [1] amounted to 2250 nM; in the assay on CCRF-CEM [2], 1840 nM; in the assay on CCRF-CEM [3], 2230 nM; with HCT-116, 9920 nM; in the assay on MX1, 7410 nM. The “Ratio IC50” value in the assay on CCRF-CEM [4] came to 0.99; in the assay on CCRF-CEM [5] it was 0.82.

For the molecule `COc1cccc(-c2cc(NC(=O)NNc3ccc(N(CCCl)CCCl)cc3)c3cc4c(cc3n2)OCO4)c1`, the IC50 came to 4850 nM in assay [6]; 209 nM in the assay on CCRF-CEM [1]; 3350 nM in the assay on MCF7; 2050 nM in assay [7]; 1130 nM in the assay with CCRF-CEM [2]; 734 nM in the assay with CCRF-CEM [3]. In addition, the IC50 came to 1370 nM in the assay with HCT-116, 749 nM in the assay with MX1, 2870 nM in [8] and 2980 nM in the assay on PC-3. Also, the “Ratio IC50” value in the assay with CCRF-CEM [4] stood at 3.51; in the assay with CCRF-CEM [5], 5.43.

For the molecule `COc1cccc(-c2cc(NC(=O)Nc3ccc(N(CCCl)CCCl)cc3)c3cc4c(cc3n2)OCO4)c1`, the IC50 stood at 2820 nM in the assay on CCRF-CEM [1]; 2220 nM in the assay with CCRF-CEM [2]; 1960 nM with CCRF-CEM [3]; 8870 nM in the assay with HCT-116; 20600 nM in the assay with MX1. Also, the “Ratio IC50” value in the assay with CCRF-CEM [4] is reported as 0.7; in the assay with CCRF-CEM [5] it was 0.79.

Turning to `COc1cccc(-c2cc(NC(=O)Nc3ccc(N(CCCl)CCCl)cc3)c3cc(Cl)ccc3n2)c1`, the IC50 with CCRF-CEM [1] was found to be 1880 nM; in the assay on CCRF-CEM [2], 1030 nM; in the assay on CCRF-CEM [3], 1100 nM; in the assay with HCT-116 it was 4880 nM; with MX1, 2250 nM. Also, the “Ratio IC50” value with CCRF-CEM [4] was determined as 0.59; in the assay with CCRF-CEM [5] it was 0.55.

As for `O=C(Nc1ccc(N(CCCl)CCCl)cc1)Nc1cc(-c2ccccc2F)nc2cc3c(cc12)OCO3`, the IC50 is 3090 nM in the assay with CCRF-CEM [1]; 2350 nM in the assay with CCRF-CEM [2]; 2610 nM in the assay on CCRF-CEM [3]; 25400 nM in the assay on HCT-116; 13100 nM in the assay with MX1. Moreover, the “Ratio IC50” value amounted to 0.84 in the assay on CCRF-CEM [4] and 0.76 in the assay with CCRF-CEM [5].

As for `O=C(Nc1ccc(N(CCCl)CCCl)cc1)Nc1cc(-c2ccccc2)nc2ccccc12`, the IC50 with CCRF-CEM [1] stood at 1690 nM; with CCRF-CEM [2], 1660 nM; in the assay with CCRF-CEM [3], 1460 nM; in the assay on HCT-116 it was 7790 nM; in the assay with MX1 it was 3470 nM. Further, the entries for the “Ratio IC50” value with CCRF-CEM [4] and in the assay on CCRF-CEM [5] were 0.87 and 0.99, respectively.

`O=C(NNc1ccc(N(CCCl)CCCl)cc1)Nc1cc(-c2ccccc2)nc2cc3c(cc12)OCO3`: the IC50 with CCRF-CEM [1] is 258 nM; in the assay on CCRF-CEM [2], 495 nM; with CCRF-CEM [3] it was 574 nM; in the assay with HCT-116, 2020 nM; in the assay on MX1, 1020 nM. Further, the “Ratio IC50” value was 2.22 in the assay with CCRF-CEM [4] and 1.92 with CCRF-CEM [5].

As to `CC(=O)O[C@H]1C(=O)[C@@]2(C)[C@H]([C@H](OC(=O)c3ccccc3)[C@]3(O)C[C@H](OC(=O)[C@H](O)[C@@H](NC(=O)c4ccccc4)c4ccccc4)C(C)=C1C3(C)C)[C@]1(OC(C)=O)CO[C@@H]1C[C@@H]2O` [PACLITAXEL], the “Ratio IC50” value in the assay on CCRF-CEM [4] worked out at 330; in the assay with CCRF-CEM [5], 980.

Turning to `COc1cccc(-c2cc(NC(=O)NNc3ccc(N(CCCl)CCCl)cc3)c3cc(Cl)ccc3n2)c1`, the IC50 stood at 732 nM in the assay with CCRF-CEM [1]; 2130 nM in the assay with CCRF-CEM [2]; 2250 nM with CCRF-CEM [3]; 13900 nM in the assay on HCT-116; 14600 nM in the assay on MX1. Besides, the entries for the “Ratio IC50” value with CCRF-CEM [4] and in the assay on CCRF-CEM [5] were 3.08 and 2.91, respectively.
